The conditions of series [1]: rat, in vivo.
Series [2] deals with T1, estrone sulfatase activity in intact MDA-MB-231 breast cancer cells (Homo sapiens, UniProt P08842).
T1 construct: host or cells: MDA-MB-231
T1 sequence (P08842 22-583): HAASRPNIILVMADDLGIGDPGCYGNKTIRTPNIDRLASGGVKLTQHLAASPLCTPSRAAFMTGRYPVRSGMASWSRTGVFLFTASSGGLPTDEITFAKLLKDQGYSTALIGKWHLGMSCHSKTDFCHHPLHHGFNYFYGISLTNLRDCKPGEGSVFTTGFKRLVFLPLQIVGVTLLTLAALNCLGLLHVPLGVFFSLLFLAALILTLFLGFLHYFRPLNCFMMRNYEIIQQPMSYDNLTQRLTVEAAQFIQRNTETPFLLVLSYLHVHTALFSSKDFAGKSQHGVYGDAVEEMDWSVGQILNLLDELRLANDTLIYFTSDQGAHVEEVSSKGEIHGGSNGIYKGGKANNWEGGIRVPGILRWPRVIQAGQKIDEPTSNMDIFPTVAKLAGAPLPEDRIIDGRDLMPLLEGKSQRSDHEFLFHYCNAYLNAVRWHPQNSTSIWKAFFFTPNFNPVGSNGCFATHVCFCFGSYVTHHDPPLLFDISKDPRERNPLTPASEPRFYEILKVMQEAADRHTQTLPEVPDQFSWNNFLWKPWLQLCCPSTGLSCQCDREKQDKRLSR
The series can be described thus: In vitro estrogen sulfatase assay on intact cell monolayers. Conditions: intact MDA-MB-231 monolayers, 18 hours at 37° C., [3H]E1S (2 nM), inhibitor 0.1 nM to 1 μM; read-out: apparent I.C. 50, concentration of the inhibitor to inhibit 50% of the sulfatase activity in the MDA-MB-231 cells. The class given is cell-based. The method, then:
The in vitro sulfatase assay on intact cells involved a modification of the procedure of Duncan et al. ["Inhibition of estrone sulfatase activity by estrone 3-methylthiophosphonate", Cancer Res., Vol. 53, pp. 298-303 (1993)]. Intact nearly confluent monolayers of MDA-MB-231 (American Type Culture Collection) breast cancer cells in 6-well tissue-culture plates were washed with Hank's balanced salt solution (HBSS) and incubated for 18 hours at 37° C. with [^3 H]E1 S (5 pmol, 7×10^5 dpm) in serum-free Minimal Essential Medium (MEM) (2.5 ml) with or without test compounds (0.01 nM to 10 μM). After incubation, each dish was cooled and aliquots of the medium (0.5 ml) were pipetted into separate tubes containing 3 ml toluene. The mixture was shaken vigorously for 30 seconds and then centrifuged for 3 minutes at 2500 x g. Previous experiments have shown that >90% of estrone (E1) and <0.1% of […] (E1 S) is removed from the aqueous phase by this treatment. […] Radioactivity was determined using a Packard TriCarb scintillation counter with 50% efficiency for ^3 H. Each batch of experiments included dishes without cells (to assess apparent non-enzymatic hydrolysis of the substrate). […] Estrone sulfatase activity was determined from the amount of ^3 H-E1 tritiated estrone and ^3 H-E2 triated estradiol formed. […]

Structures are written as SMILES.

Regarding `C[C@]12CC[C@@H]3c4ccc(OS(N)(=O)=O)cc4CC[C@H]3[C@@H]1CCC2=O` [estrone 3-0 sulfamate], the “estrogenicity in uterine weight gain assay” value in series [1] is “estrogenic”. In the case of `CCCCCCCCCCCC(=O)NCCc1ccc(OS(N)(=O)=O)cc1` [N-lauroyl-(p-o-sulfamoyl) tyramine (C12), N-lauroyl-(p-o-sulfamoyl) tyramine], in series [2], the IC50 was in the range of 1 to 2 nM.

For the origin of these results see patent US5567831A, “Non-steroidal sulfatase inhibitor compounds and their method of use” (Duguesne University of the Holy Ghost, priority 1995, dated 1996).
